According to publication PMC8194939, “Investigation on the characteristics and mechanisms of ACE inhibitory peptides by a thorough analysis of all 8000 tripeptides via binding free energy calculation” (Food Science & Nutrition, 2021):
Where a SMILES comes first, the peptide text is derived from it.

Target: T1, ACE from rabbit lung (Oryctolagus cuniculus, UniProt P12822)
T1 sequence (P12822 34-1310): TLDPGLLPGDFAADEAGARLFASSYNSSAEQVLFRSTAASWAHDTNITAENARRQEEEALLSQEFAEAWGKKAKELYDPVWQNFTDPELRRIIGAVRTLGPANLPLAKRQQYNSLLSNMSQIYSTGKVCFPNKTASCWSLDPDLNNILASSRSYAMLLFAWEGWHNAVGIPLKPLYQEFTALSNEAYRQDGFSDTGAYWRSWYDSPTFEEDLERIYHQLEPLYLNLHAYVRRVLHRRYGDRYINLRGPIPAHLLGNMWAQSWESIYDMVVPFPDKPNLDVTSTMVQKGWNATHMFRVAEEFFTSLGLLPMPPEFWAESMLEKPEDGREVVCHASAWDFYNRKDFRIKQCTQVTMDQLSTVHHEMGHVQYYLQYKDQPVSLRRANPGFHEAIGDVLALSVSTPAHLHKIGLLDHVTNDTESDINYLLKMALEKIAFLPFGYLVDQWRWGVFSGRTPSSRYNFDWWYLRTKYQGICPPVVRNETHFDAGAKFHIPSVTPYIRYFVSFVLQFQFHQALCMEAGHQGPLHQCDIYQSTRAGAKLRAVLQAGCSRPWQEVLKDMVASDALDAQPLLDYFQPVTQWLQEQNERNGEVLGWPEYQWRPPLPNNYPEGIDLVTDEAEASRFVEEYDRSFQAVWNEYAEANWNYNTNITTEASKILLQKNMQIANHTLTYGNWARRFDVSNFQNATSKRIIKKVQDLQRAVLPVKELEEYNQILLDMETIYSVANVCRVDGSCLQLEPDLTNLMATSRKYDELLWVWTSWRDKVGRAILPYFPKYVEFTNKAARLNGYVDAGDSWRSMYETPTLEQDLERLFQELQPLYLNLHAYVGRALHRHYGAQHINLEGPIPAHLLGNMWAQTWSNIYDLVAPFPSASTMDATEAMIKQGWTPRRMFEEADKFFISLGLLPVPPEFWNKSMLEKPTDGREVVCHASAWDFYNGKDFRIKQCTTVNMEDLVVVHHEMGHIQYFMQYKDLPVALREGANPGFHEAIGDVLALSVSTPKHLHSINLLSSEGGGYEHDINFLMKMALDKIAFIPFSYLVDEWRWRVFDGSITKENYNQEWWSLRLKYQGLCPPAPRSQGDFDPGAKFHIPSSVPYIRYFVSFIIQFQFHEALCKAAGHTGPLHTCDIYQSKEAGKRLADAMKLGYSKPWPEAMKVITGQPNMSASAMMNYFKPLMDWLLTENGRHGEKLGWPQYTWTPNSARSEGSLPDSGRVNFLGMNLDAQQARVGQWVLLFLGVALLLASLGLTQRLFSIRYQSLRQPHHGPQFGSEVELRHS
Test: Assay of ACE inhibitory activity (HHL substrate, RP-HPLC of hippuric acid)
Protocol: ACE from rabbit lung and hippuryl‐histidyl‐leucine (HHL) were sourced from Sigma Chemical Co. (St. Louis).
Briefly, 20 μL of inhibitory peptides at different concentrations and 20 μL of 5 mM HHL solution were preincubated at 37°C for 5 min in 90 μL of buffer A (50 mM HEPES, 300 mM NaCl, pH 8.3). Next, 20 μL of ACE solution (0.04 U/mL) was added to trigger the reaction. After incubation at 37°C for 1 hr, the reaction was terminated by adding 50 μL of 1 M HCl. Next, 10 μL of the mixture was separated through RP‐HPLC (e2679, Waters) using an XBridge C18 column (4.6 mm × 150 mm, 5 μm, Waters). […] Hippuric acid was monitored at 228 nm. Triplicate tests were performed for each sample. […] For comparative purposes, the IC50 value of captopril was obtained using this methodology.

Point of comparison: `N=C(N)NCCC[C@H](NC(=O)[C@@H](N)Cc1c[nH]c2ccccc12)C(=O)N[C@@H](Cc1ccc(O)cc1)C(=O)O` [WRY] (H-Trp-Arg-Tyr-OH), IC50 5.86 ± 0.73 µM. Against it:
- N[C@@H](Cc1c[nH]c2ccccc12)C(=O)N[C@@H](Cc1c[nH]c2ccccc12)C(=O)N[C@@H](Cc1c[nH]c2ccccc12)C(=O)O [WWW] (H-Trp-Trp-Trp-OH) — within error, 7.3 ± 2.11 µM
- NC(=O)CC[C@H](NC(=O)[C@@H](N)Cc1c[nH]c2ccccc12)C(=O)N[C@@H](Cc1c[nH]c2ccccc12)C(=O)O [WQW] (H-Trp-Gln-Trp-OH) — 2-fold higher, 11.8 ± 1.79 µM
- N=C(N)NCCC[C@H](NC(=O)[C@@H](N)Cc1c[nH]c2ccccc12)C(=O)N[C@@H](Cc1ccccc1)C(=O)O [WRF] (H-Trp-Arg-Phe-OH) — 3.7-fold higher, 21.8 ± 2.5 µM
- NCCCC[C@H](N)C(=O)N[C@@H](Cc1ccc(O)cc1)C(=O)N[C@@H](Cc1ccc(O)cc1)C(=O)O [KYY] (H-Lys-Tyr-Tyr-OH) — 3.5-fold higher, 20.5 ± 4.05 µM
- N[C@@H](CC(=O)O)C(=O)NCC(=O)NCC(=O)O [DGG] (H-Asp-Gly-Gly-OH) — higher, > 5000 µM
- NCC(=O)NCC(=O)NCC(=O)O [GGG] (H-Gly-Gly-Gly-OH) — higher, > 5000 µM
